# From patent publication US20230146239A1 (THE SCRIPPS RESEARCH INSTITUTE, priority 2020, published 2023)
# Like-named read-outs stand apart in the source and are kept apart here.
# Key:
# VanA E. faecium (TX2465) = assay: In vitro antimicrobial microdilution assay (MIC); format: cell-based, Enterococcus faecium
# [1] = tested on: VanA E. faecalis (BM 4166); assay: In vitro antimicrobial microdilution assay (MIC); format: cell-based, Enterococcus faecalis
# [2] = tested on: VanA E. faecium (ATCC BAA-2317); assay: In vitro antimicrobial microdilution assay (MIC); format: cell-based, Enterococcus faecium
# [3] = tested on: VanA E. faecalis (ATCC BAA-2573); assay: In vitro antimicrobial microdilution assay (MIC); format: cell-based, Enterococcus faecalis
# [4] = tested on: VanA VRE E. faecalis BM 4166 and E. faecium ATCC BAA-2317; format: cell-based, Enterococcus faecalis, Enterococcus faecium; conditions: 10 μM added at 5 minutes
# Experimental: The above bacterial solution was subjected to a subculture to obtain fresh mid-log phase bacterial cells (incubation time=6 hours). The bacterial suspension was diluted to a total volume of 7 mL with OD600=0.6.
# After the cultured bacteria were harvested (3000 rpm, 4° C., 20 minutes), the white bacterial precipitate was washed and resuspended in 5 mM glucose and 5 mM HEPES buffer (1:1, 5.00 mL, pH=7.2).
# [5] = tested on: VanA VRE E. faecalis (BM 4166); assay: Impact of added LTA, phosphate, POPE on antimicrobial activity (MIC); format: cell-based, Enterococcus faecalis
# Experimental: When NaH2PO4 or POPE was used instead of LTA, 10% brain-heart infusion broth containing 0.002% Tween®-80 with 100 μg/mL NaH2PO4 or 100 μg/mL POPE was used as the culture medium used for serial dilution. When additional G3 (H2N^+(CH2)3NHC(NH2)═NH2^+.2TFA) or Mg^2+ was used, 10% brain-heart infusion broth containing 0.002% Tween®-80 with 100 μg/mL G3 or 100 μg/mL MgCl2 and 100 μg/mL lipoteichoic acid was used as the culture medium for serial dilution of study group, 10% brain-heart infusion broth containing 0.002% Tween®-80 with 100 μg/mL G3 was used as the culture medium for serial dilution of control group.
# [6] = tested on: two VanA VRE strains (E. faecalis BM4166, E. faecium ATCC BAA-2317); assay: Resistance development assay, durability (serial passaging at 0.5×MIC); format: cell-based, Enterococcus faecalis, Enterococcus faecium; conditions: 50 passages
# Experimental: The lowest concentration of antibiotic (in μg/mL) capable of eliminating cell growth in the wells is the reported MIC value.
# A new MIC assay was performed with the same protocol above. This process was repeated for 50 passages, and the fold increase in MIC was determined after each passage.
SMILES,"MIC, VanA E. faecium TX2465 (VanA E. faecium (TX2465))","MIC, VanA E. faecalis BM 4166 [1]","MIC, VanA E. faecium ATCC BAA-2317 [2]","MIC, VanA E. faecalis ATCC BAA-2573 [3]",other results
"CN[C@H](CC(C)C)C(=O)N[C@H]1C(=O)N[C@@H](CC(N)=O)C(=O)N[C@H]2C(=O)NC3C(=O)N[C@H](C(=O)N[C@H](C(=O)NCCNC(=N)N)c4cc(O)cc(O)c4-c4cc3ccc4O)[C@H](O)c3ccc(c(Cl)c3)Oc3cc2cc(c3OC2OC(CO)C(O)[C@H](O)[C@@H]2O[C@H]2CC(C)(N)[C@H](O)[C@H](C)O2)Oc2ccc(cc2Cl)[C@H]1O (some centres unmarked) [Compound 6, G2-vancomycin]",16 µg/mL,16 µg/mL,4 µg/mL,8 µg/mL,
"CN[C@H](CC(C)C)C(=O)N[C@H]1C(=O)N[C@@H](CC(N)=O)C(=O)N[C@H]2C(=O)NC3C(=O)N[C@H](C(=O)N[C@H](C(=O)NCCCCNC(=N)N)c4cc(O)cc(O)c4-c4cc3ccc4O)[C@H](O)c3ccc(c(Cl)c3)Oc3cc2cc(c3OC2OC(CO)C(O)[C@H](O)[C@@H]2O[C@H]2CC(C)(N)[C@H](O)[C@H](C)O2)Oc2ccc(cc2Cl)[C@H]1O (some centres unmarked) [Compound 7, G4-vancomycin]",16 µg/mL,16 µg/mL,4 µg/mL,4 µg/mL,
"CN[C@H](CC(C)C)C(=O)N[C@H]1C(=O)N[C@@H](CC(N)=O)C(=O)N[C@H]2C(=O)NC3C(=O)N[C@H](C(=O)N[C@H](C(=O)NCCCCCCNC(=N)N)c4cc(O)cc(O)c4-c4cc3ccc4O)[C@H](O)c3ccc(c(Cl)c3)Oc3cc2cc(c3OC2OC(CO)C(O)[C@H](O)[C@@H]2O[C@H]2CC(C)(N)[C@H](O)[C@H](C)O2)Oc2ccc(cc2Cl)[C@H]1O (some centres unmarked) [Compound 8, G6-vancomycin]",16 µg/mL,16 µg/mL,4 µg/mL,4 µg/mL,
"CN[C@H](CC(C)C)C(=O)N[C@H]1C(=O)N[C@@H](CC(N)=O)C(=O)N[C@H]2C(=O)NC3C(=O)N[C@H](C(=O)N[C@H](C(=O)N[C@@H](CCCNC(=N)N)C(=O)OC)c4cc(O)cc(O)c4-c4cc3ccc4O)[C@H](O)c3ccc(c(Cl)c3)Oc3cc2cc(c3OC2OC(CO)C(O)[C@H](O)[C@@H]2O[C@H]2CC(C)(N)[C@H](O)[C@H](C)O2)Oc2ccc(cc2Cl)[C@H]1O (some centres unmarked) [Compound 10, Arg(OMe)-vancomycin]",8 µg/mL,8 µg/mL,8 µg/mL,4 µg/mL,
"CN[C@H](CC(C)C)C(=O)N[C@H]1C(=O)N[C@@H](CC(N)=O)C(=O)N[C@H]2C(=O)N[C@H]3C(=O)N[C@H](C(=O)N[C@H](C(=O)N[C@@H](CCCNC(=N)N)C(=O)O)c4cc(O)cc(O)c4-c4cc3ccc4O)[C@H](O)c3ccc(c(Cl)c3)Oc3cc2cc(c3OC2OC(CO)C(O)[C@H](O)C2O[C@H]2CC(C)(N)[C@H](O)[C@H](C)O2)Oc2ccc(cc2Cl)[C@H]1O (some centres unmarked) [Compound 11, Arg-vancomycin]",,,,,"MIC ([1]; Enterococcus faecalis, read-out: MIC, VanA E. faecalis BM 4166): 63 µg/mL; MIC ([2]; Enterococcus faecium, ATCCBAA2317, read-out: MIC, VanA E. faecium ATCC BAA-2317): 63 µg/mL"
"CN[C@H](CC(C)C)C(=O)N[C@H]1C(=O)N[C@@H](CC(N)=O)C(=O)N[C@H]2C(=O)NC3C(=O)N[C@H](C(=O)N[C@H](C(=O)N[C@@H](CCCNC(=N)N)C(N)=O)c4cc(O)cc(O)c4-c4cc3ccc4O)[C@H](O)c3ccc(c(Cl)c3)Oc3cc2cc(c3OC2OC(CO)C(O)[C@H](O)[C@@H]2O[C@H]2CC(C)(N)[C@H](O)[C@H](C)O2)Oc2ccc(cc2Cl)[C@H]1O (some centres unmarked) [Compound 12, Arg(NH2)-vancomycin]",8 µg/mL,16 µg/mL,4 µg/mL,4 µg/mL,
"CN[C@H](CC(C)C)C(=O)N[C@H]1C(=O)N[C@@H](CC(N)=O)C(=O)N[C@H]2C(=O)NC3C(=O)N[C@H](C(=O)N[C@H](C(=O)N[C@@H](CCCNC(N)=O)C(=O)OC)c4cc(O)cc(O)c4-c4cc3ccc4O)[C@H](O)c3ccc(c(Cl)c3)Oc3cc2cc(c3OC2OC(CO)C(O)[C@H](O)[C@@H]2O[C@H]2CC(C)(N)[C@H](O)[C@H](C)O2)Oc2ccc(cc2Cl)[C@H]1O (some centres unmarked) [Compound 13, Cit(OMe)-vancomycin]",63 µg/mL,63 µg/mL,31 µg/mL,16 µg/mL,
"CN[C@H](CC(C)C)C(=O)N[C@H]1C(=O)N[C@@H](CC(N)=O)C(=O)N[C@H]2C(=O)NC3C(=O)N[C@H](C(=O)N[C@H](C(=O)NC(CNC(=N)N)CNC(=N)N)c4cc(O)cc(O)c4-c4cc3ccc4O)[C@H](O)c3ccc(c(Cl)c3)Oc3cc2cc(c3OC2OC(CO)C(O)[C@H](O)[C@@H]2O[C@H]2CC(C)(N)[C@H](O)[C@H](C)O2)Oc2ccc(cc2Cl)[C@H]1O (some centres unmarked) [Compound 14, DiG-vancomycin]",4 µg/mL,8 µg/mL,1 µg/mL,2 µg/mL,
"CN[C@H](CC(C)C)C(=O)N[C@H]1C(=O)N[C@@H](CC(N)=O)C(=O)N[C@H]2C(=O)N[C@H]3C(=O)N[C@H](C(=O)N[C@H](C(=O)N[C@@H](CCCNC(=N)N)C(=O)O)c4cc(O)cc(O)c4-c4cc3ccc4O)[C@H](O)c3ccc(c(Cl)c3)Oc3cc2cc(c3OC2OC(CO)C(O)[C@H](O)C2O[C@H]2CC(C)(NCc3ccc(-c4ccc(Cl)cc4)cc3)[C@H](O)[C@H](C)O2)Oc2ccc(cc2Cl)[C@H]1O (some centres unmarked) [Compound 21, Arg-CBP-vancomycin]",,,,,bacterial cell membrane permeabilization [4]: reduced bacteria cell permeabilization
"CN[C@H](CC(C)C)C(=O)N[C@H]1C(=O)N[C@@H](CC(N)=O)C(=O)N[C@H]2C(=O)N[C@H]3C(=O)N[C@H](C(=O)N[C@H](C(=O)N[C@@H](CCCNC(N)=O)C(=O)OC)c4cc(O)cc(O)c4-c4cc3ccc4O)[C@H](O)c3ccc(c(Cl)c3)Oc3cc2cc(c3OC2OC(CO)C(O)[C@H](O)C2O[C@H]2CC(C)(NCc3ccc(-c4ccc(Cl)cc4)cc3)[C@H](O)[C@H](C)O2)Oc2ccc(cc2Cl)[C@H]1O (some centres unmarked) [Compound 23, Cit(OMe)-CBP-vancomycin]",,,,,bacterial cell membrane permeabilization [4]: reduced bacteria cell permeabilization
"CN[C@H](CC(C)C)C(=O)N[C@H]1C(=O)N[C@@H](CC(N)=O)C(=O)N[C@H]2C(=O)N[C@H]3C(=O)N[C@H](C(=O)N[C@H](C(=O)N[C@@H](CCCNC(=N)N)C(=O)OC)c4cc(O)c(CN[C@@H](CCCNC(=N)N)C(=O)OC)c(O)c4-c4cc3ccc4O)[C@H](O)c3ccc(c(Cl)c3)Oc3cc2cc(c3OC2OC(CO)C(O)[C@H](O)C2O[C@H]2CC(C)(N)[C@H](O)[C@H](C)O2)Oc2ccc(cc2Cl)[C@H]1O (some centres unmarked) [Compound 28, Arg(OMe)-Arg(OMe)^Ar-vancomycin]",,,,,"MIC (VanA E. faecium (TX2465); Enterococcus faecium, read-out: MIC, VanA E. faecium TX2465): 8 µg/mL; MIC ([1]; Enterococcus faecalis; read-out: MIC, VanA E. faecalis BM 4166): 8 µg/mL; MIC ([2]; Enterococcus faecium, ATCCBAA2317; read-out: MIC, VanA E. faecium ATCC BAA-2317): 2 µg/mL; MIC ([3]; Enterococcus faecalis, ATCCBAA2573, read-out: MIC, VanA E. faecalis ATCC BAA-2573): 1 µg/mL"
"N=C(N)NCCCN [G3^+, H2N(CH2)3NHC(═NH2)NH2^+]",,,,,"MIC ([5]; E. faecalis BM 4166, POPE 100 μg/mL, read-out: MIC, +POPE): > 800 µg/mL; MIC ([5]; E. faecalis BM 4166, read-out: MIC, −POPE): > 800 µg/mL"
CCCCCCCCCC(=O)N[C@@H](Cc1c[nH]c2ccccc12)C(=O)N[C@H](CC(N)=O)C(=O)N[C@@H](CC(=O)O)C(=O)N[C@@H]1C(=O)NCC(=O)N[C@@H](CCCN)C(=O)N[C@@H](CC(=O)O)C(=O)N[C@H](C)C(=O)N[C@@H](CC(=O)O)C(=O)NCC(=O)N[C@H](CO)C(=O)N[C@@H]([C@H](C)CC(=O)O)C(=O)N[C@@H](CC(=O)c2ccccc2N)C(=O)O[C@@H]1C [daptomycin],,,,,resistance acquisition on serial passaging [6]: raise resistance more rapidly and in a more pronounced manner
CC(=O)NC[C@H]1CN(c2ccc(N3CCOCC3)c(F)c2)C(=O)O1 [linezolid],,,,,resistance acquisition on serial passaging [6]: raise resistance more rapidly and in a more pronounced manner
CN(C)c1cc(NC(=O)CNC(C)(C)C)c(O)c2c1C[C@H]1C[C@H]3[C@H](N(C)C)C(O)=C(C(N)=O)C(=O)[C@@]3(O)C(O)=C1C2=O [tigecycline],,,,,resistance acquisition on serial passaging [6]: raise resistance more rapidly and in a more pronounced manner
